Measured values taken from patent US20180256557A1, “PHARMACEUTICAL COMBINATION COMPRISING (A) THE ALPHA-ISOFORM SPECIFIC PI3K INHIBITOR ALPELISIB (BYL719) AND (B) AN AKT INHIBITOR, PREFERABLY MK-2206, AFURESERTIB OR UPROSERTIB, AND THE USE THEREOF IN THE TREATMENT/PREVENTION OF CANCER” (priority 2015, published 2018).

Key:
Format in all cases: cell-based
[1] = test system: LS-180 colorectal cancer cell line; assay: Cell proliferation, cell count by microscopy; settings: Homo sapiens, LS180; single agent; LS-180 (KRAS, PIK3CA); 72 h treatment
Description: (§1) COMPOUNDS A and B were dissolved in 100% DMSO (Sigma, Catalog number D2650) at concentrations of 20 mM and stored at −20° C. until use. Compounds were arrayed in drug master plates (Greiner, Catalog number 788876) and serially diluted 3-fold (7 steps) at 2000× concentration.
(§2) Colorectal cancer cell lines used for this study were obtained, cultured and processed from commercial vendors ATCC, CellBank Australia, DSMZ, ECACC, HSRRB, and RIKEN (Table 1). All cell line media were supplemented with 10% FBS (HyClone, Catalog number SH30071.03). Media for LIM2405 and LIM2551 was additionally supplemented with 0.6 μg/mL Insulin (SIGMA, Catalog number 19278), 1 μg/mL Hydrocortisone (SIGMA, Catalog number H0135), and 10 μM 1-Thioglycerol (SIGMA, Catalog number M6145).
(§3) Cell lines were cultured in 37° C. and 5% CO2 incubator and expanded in T-75 flasks. In all cases cells were thawed from frozen stocks, expanded through ≥1 passage using 1:3 dilutions, counted and assessed for viability using a ViCell counter (Beckman-Coulter) prior to plating. To split and expand cell lines, cells were dislodged from flasks using 0.25% Trypsin-EDTA (GIBCO, Catalog number 25200). All cell lines were determined to be free of mycoplasma contamination as determined by a PCR detection methodology performed at Idexx Radil (Columbia, Mo., USA) and correctly identified by detection of a panel of SNPs.
(§4) To test the effect of the combination of COMPOUND A and COMPOUND B on cell proliferation cells were plated in black 384-well microplates with clear bottom (Matrix/Thermo Scientific, Catalog number 4332) in 50 μL media per well at cell densities between 500 and 1250 cells/well (Table 1) and allowed to incubate at 37 degrees, 5% CO2 for 24 h. After 24 h one 384-well plate per cell line was prepared for cell counting by microscopy (see below) without receiving treatment (=‘baseline’). The other cell plates were treated by transferring 25 nL of the 2000× compound from drug master plates using an ATS acoustic liquid dispenser (ECD Biosystems) and resulting in a final 1× concentration. COMPOUND A was used over a final concentration range of 13 nM-10 μM, and COMPOUND B was used over a final concentration range of 13 nM-10 μM (7 1:3 dilution steps). For the combination of COMPOUND A with COMPOUND B the single agents were combined at a fixed ratio of 1:1 at each dilution resulting in 7 combination treatments. […] After compound addition 50 nL of 2 mM CellEvent Caspase-3/7 Green Detection Reagent (ThermoFisher, Catalog number C10423) were added to one of the three replicates using the HP D300 Digital Dispenser (Tecan). Caspase 3/7 induction was measured as a proxy for apoptosis induced by the treatments. Cells were treated for 72 h to 96 h depending on their doubling time (Table 1), and Caspase 3/7 activation was measured every 24 h by microscopy using an InCell Analyzer 2000 (GE Healthcare) equipped with a 4× objective and FITC excitation/emission filters. At the end of the treatment cells were prepared for cell counting by microscopy. Cells were fixed and permeabilised for 45 minutes in 4% PFA (Electron Microscopy Sciences, Catalog number 15714), 0.12% TX-100 (Electron Microscopy Sciences, Catalog number 22140) in PBS (Boston Bioproducts, Catalog number BM-220). After washing cells three times with PBS their DNA was stained for 30 minutes with Hoechst 33342 (ThermoFisher, Catalog number H3570) at a final concentration of 4 μg/ml. Cells were washed three times with PBS and then plates were heat-sealed using a PlateLoc (Agilent Technologies) with aluminum seals (Agilent Technologies, Catalog number 06644-001) and stored at 4° C. until imaging. All cells per well/treatment were captured in a single image by fluorescence microscopy using an InCell Analyzer 2000 (GE Healthcare) equipped with a 4× objective and DAPI excitation/emission filters. […]

[2] = test system: CW-2 colorectal cancer cell line; assay: Cell proliferation, cell count by microscopy; settings: single agent; CW-2 (no driver mutation listed); 96 h treatment
Description: as §1, §2, §3, §4

[3] = test system: OUMS-23 colorectal cancer cell line; assay: Cell proliferation, cell count by microscopy; settings: single agent; OUMS-23 (BRAF); 72 h treatment
Description: as §1, §2, §3, §4

[4] = test system: SNU-C2A colorectal cancer cell line; assay: Cell proliferation, cell count by microscopy; settings: single agent; SNU-C2A (KRAS); 96 h treatment
Description: as §1, §2, §3, §4

[5] = test system: RKO colorectal cancer cell line; assay: Cell proliferation, cell count by microscopy; settings: single agent; RKO (BRAF, PIK3CA); 72 h treatment
Description: as §1, §2, §3, §4

[6] = test system: HT-29 colorectal cancer cell line; assay: Cell proliferation, cell count by microscopy; settings: Homo sapiens; single agent; HT-29 (BRAF, PIK3CA); 72 h treatment
Description: as §1, §2, §3, §4

[7] = test system: COLO-678 colorectal cancer cell line; assay: Cell proliferation, cell count by microscopy; settings: Homo sapiens; single agent; COLO-678 (KRAS); 96 h treatment
Description: as §1, §2, §3, §4

[8] = test system: LIM2405 colorectal cancer cell line; assay: Cell proliferation, cell count by microscopy; settings: single agent; LIM2405 (BRAF); 72 h treatment
Description: as §1, §2, §3, §4

[9] = test system: HT55 colorectal cancer cell line; assay: Cell proliferation, cell count by microscopy; settings: Homo sapiens; single agent; HT55 (no driver mutation listed); 96 h treatment
Description: as §1, §2, §3, §4

[10] = test system: SW837 colorectal cancer cell line; assay: Cell proliferation, cell count by microscopy; settings: Homo sapiens; single agent; SW837 (KRAS); 72 h treatment
Description: as §1, §2, §3, §4

[11] = test system: COLO-205 colorectal cancer cell line; assay: Cell proliferation, cell count by microscopy; settings: Homo sapiens; single agent; COLO-205 (BRAF); 72 h treatment
Description: as §1, §2, §3, §4

[12] = test system: CL-11 colorectal cancer cell line; assay: Cell proliferation, cell count by microscopy; settings: single agent; CL-11 (KRAS); 96 h treatment
Description: as §1, §2, §3, §4

[13] = test system: DLD-1 colorectal cancer cell line; assay: Cell proliferation, cell count by microscopy; settings: Homo sapiens; single agent; DLD-1 (KRAS, PIK3CA); 72 h treatment
Description: as §1, §2, §3, §4

[14] = test system: LoVo colorectal cancer cell line; assay: Cell proliferation, cell count by microscopy; settings: Homo sapiens; single agent; LoVo (KRAS); 96 h treatment
Description: as §1, §2, §3, §4

[15] = test system: COLO-320 colorectal cancer cell line; assay: Cell proliferation, cell count by microscopy; settings: Homo sapiens; single agent; COLO-320 (no driver mutation listed); 72 h treatment
Description: as §1, §2, §3, §4

[16] = test system: NCI-H508 colorectal cancer cell line; assay: Cell proliferation, cell count by microscopy; settings: Homo sapiens; single agent; NCI-H508 (PIK3CA); 72 h treatment
Description: as §1, §2, §3, §4

[17] = test system: SW48 colorectal cancer cell line; assay: Cell proliferation, cell count by microscopy; settings: Homo sapiens; single agent; SW48 (MEK1); 96 h treatment
Description: as §1, §2, §3, §4

[18] = test system: SW480 colorectal cancer cell line; assay: Cell proliferation, cell count by microscopy; settings: Homo sapiens; single agent; SW480 (KRAS); 72 h treatment
Description: as §1, §2, §3, §4

[19] = test system: LIM2551 colorectal cancer cell line; assay: Cell proliferation, cell count by microscopy; settings: single agent; LIM2551 (BRAF, PIK3CA); 72 h treatment
Description: as §1, §2, §3, §4

[20] = test system: LS411N colorectal cancer cell line; assay: Cell proliferation, cell count by microscopy; settings: Homo sapiens, LS-411N; single agent; LS411N (BRAF); 72 h treatment
Description: as §1, §2, §3, §4

[21] = test system: HCT-116 colorectal cancer cell line; assay: Cell proliferation, cell count by microscopy; settings: Homo sapiens; single agent; HCT-116 (KRAS, PIK3CA); 72 h treatment
Description: as §1, §2, §3, §4

[22] = test system: GP2d colorectal cancer cell line; assay: Cell proliferation, cell count by microscopy; settings: single agent; GP2d (KRAS, PIK3CA); 72 h treatment
Description: as §1, §2, §3, §4

[23] = test system: SW620 colorectal cancer cell line; assay: Cell proliferation, cell count by microscopy; settings: Homo sapiens, SW-620; single agent; SW620 (KRAS); 72 h treatment
Description: as §1, §2, §3, §4

[24] = test system: 23 colorectal cancer cell lines; assay: Cell proliferation over the panel of cell lines; settings: single agent; for IC50 values over the cell line panel: summary in words of FIG. 1 and Table 2
Description: as §1, §2, §3
To test the effect of the combination of COMPOUND A and COMPOUND B on cell proliferation cells were plated in black 384-well microplates with clear bottom (Matrix/Thermo Scientific, Catalog number 4332) in 50 μL media per well at cell densities between 500 and 1250 cells/well (Table 1) and allowed to incubate at 37 degrees, 5% CO2 for 24 h. […] Caspase 3/7 induction was measured as a proxy for apoptosis induced by the treatments. Cells were treated for 72 h to 96 h depending on their doubling time (Table 1), and Caspase 3/7 activation was measured every 24 h by microscopy using an InCell Analyzer 2000 (GE Healthcare) equipped with a 4× objective and FITC excitation/emission filters. […]

Compound | IC50 [1] | IC50 [2] | IC50 [3] | IC50 [4] | IC50 [5] | IC50 [6] | IC50 [7] | IC50 [8] | IC50 [9] | IC50 [10] | IC50 [11] | IC50 [12] | IC50 [13] | IC50 [14] | IC50 [15] | IC50 [16] | IC50 [17] | IC50 [18] | IC50 [19] | IC50 [20] | also measured
Cc1nc(NC(=O)N2CCC[C@H]2C(N)=O)sc1-c1ccnc(C(C)(C)C(F)(F)F)c1 [COMPOUND A, (S)-Pyrrolidine-1,2-dicarboxylic acid 2-amide 1-({4-methyl-5-[2-(2,2,2-trifluoro-1,1-dimethyl-ethyl)-pyridin-4-yl]-thiazol-2-yl}-amide)] | 7.1 µM | > 10 µM | > 10 µM | > 10 µM | 2.6 µM | 1.9 µM | > 10 µM | > 10 µM | 1.1 µM | 9.3 µM | > 10 µM | 3.2 µM | > 10 µM | 7.5 µM | 7.3 µM | 1.3 µM | 3.2 µM | > 10 µM | 1.4 µM | > 10 µM | IC50 [21]: 6.9 µM; IC50 [22]: 0.3 µM; IC50 [23]: > 10 µM; growth inhibition of PIK3CA mutant cell lines compared to PIK3CA wild type cell lines ([24]; one-tailed t-test on normalized cell counts (FIG. 3)): significantly stronger; IC50 values over the cell line panel [24]: micromolar
NC1(c2ccc(-c3nc4ccn5c(=O)[nH]nc5c4cc3-c3ccccc3)cc2)CCC1 [COMPOUND B, 8-[4-(1-Aminocyclobutyl)phenyl]-9-phenyl-1,2,4-triazolo[3,4-f][1,6]naphthyridin-3(2H)-one, reference compound] | > 10 µM | 6.4 µM | > 10 µM | > 10 µM | 3.9 µM | 3.8 µM | > 10 µM | > 10 µM | 1 µM | > 10 µM | 5.4 µM | > 10 µM | > 10 µM | 0.1 µM | 5.1 µM | 1.5 µM | > 10 µM | > 10 µM | 1.4 µM | 3 µM | IC50 [21]: > 10 µM; IC50 [22]: 0.6 µM; IC50 [23]: > 10 µM; IC50 values over the cell line panel [24]: micromolar
